Assay results: publication PMC7822874, “Chemoprotective antimalarials identified through quantitative high-throughput screening of Plasmodium blood and liver stage parasites” (Scientific Reports, 2021)
Several values for one entry are separate records, joined by “and”; a condition that tells them apart may be missing. Equal entries are not always repeated.

Tests used:
[1] = system: T1, Plasmodium falciparum Dd2-attB (parental line), asexual blood stages; test: microbe, parasite or virus in culture; parameters: replicate k of 3 (each line is one of three independent assays; the three lines of one compound and parasite line follow each other); details: n = 1; for Individual replicates / Log AC50 (M): 72 h; for AC50: Plasmodium falciparum, DD2, 72 h, read-out: Individual replicates / Log AC50 (converted)
T1 construct: Dd2-attB, the isogenic parental line
Method: (§1) The overexpression of the fumarate-dependent yeast DHODH confers resistance to compounds that inhibit the parasite mETC, or the parasite DHODH enzyme that depends on ubiquinone provided by the parasite mETC. Assays were performed in three independent assays on a subset of compounds, and differences between the Dd2-attB parental line and the ScDHODH transgenic line were analyzed using two-sided Student’s t-tests.

[2] = system: T2, Plasmodium falciparum Dd2-attB-ScDHODH (transgenic line expressing yeast DHODH), asexual blood stages; test: organism not typed; parameters: replicate k of 3 (each line is one of three independent assays; the three lines of one compound and parasite line follow each other); details: 72 h, n = 1; for AC50: read-out: Individual replicates / Log AC50 (converted)
T2 construct: Dd2-attB-ScDHODH, the transgenic line that expresses yeast DHODH
Method: as §1

Structure (SMILES)	Individual replicates / Log AC50 (M) [1]	AC50 [1] [µM]	Individual replicates / Log AC50 (M) [2]	AC50 [2] [µM]
O=C(O)c1ccnc(-n2ncc(C(CC3CC3)OCCN3CCCCC3)c2-c2cccc(-c3ccccc3)c2)c1 (centres unmarked) [NCGC00487050-01]	-4.7986 Log AC50 (M) and -4.8486 Log AC50 (M)	15.9	-4.7986 Log AC50 (M) and -4.7486 Log AC50 (M)	17.8
Cc1cc(C)nc(NCc2ccc(O)c3ncccc23)c1 [NCGC00241026-01]	-4.7986 Log AC50 (M)	17.8	-4.8986 Log AC50 (M)	20
COC(=O)c1ccc(O)c2ncc(-c3ccc(C(=O)N4CCNCC4)cc3)cc12 [NCGC00189509-01]	-5.0486 Log AC50 (M) and -5.1486 Log AC50 (M)	5.64	-4.9486 Log AC50 (M) and -5.0986 Log AC50 (M)	5.64
Cc1cccc(CN2CCCn3nc(C)c(-c4ccccc4OCc4ccccc4)c32)n1 [NCGC00499716-01]	-4.8986 Log AC50 (M) and -4.7486 Log AC50 (M)	15.9	-4.8486 Log AC50 (M)	12.6
COC(=O)c1ccc(O)c2ncc(N3CC[C@H](N)C3)cc12 [NCGC00241042-01]	-4.9986 Log AC50 (M) and -4.8486 Log AC50 (M)	17.8	-4.7486 Log AC50 (M)	17.8
O=C(O)c1ccc(O)c2ncc(N3CCCN(CCCc4ccncc4)CC3)cc12 [NCGC00247752-01]	-4.7486 Log AC50 (M)	12.6	-4.7986 Log AC50 (M) and -4.7486 Log AC50 (M)	17.8
Cc1nn2c(c1-c1ccccc1-c1ccccc1)N(CC1CC1)CCC2 [NCGC00420435-02]	-4.7986 Log AC50 (M) and -4.8486 Log AC50 (M)	14.2	-4.7486 Log AC50 (M) and -4.8486 Log AC50 (M)	15.9
O=C(c1ccc(-c2cnc3c(O)cccc3c2)cc1)N1CCNCC1 [NCGC00189507-01]	-4.8986 Log AC50 (M) and -4.9986 Log AC50 (M)	14.2	-4.7986 Log AC50 (M)	10
N[C@H]1CCN(c2cnc3c(O)ccc(C(=O)O)c3c2)C1 [NCGC00241041-01]	–	14.2	–	15.9
Oc1ccc(CCc2c(F)cccc2F)c2cccnc12 [NCGC00184906-01]	-5.2486 Log AC50 (M) and -5.2986 Log AC50 (M)	5.64	-5.0486 Log AC50 (M) and -5.1486 Log AC50 (M)	6.33
O=C(O)c1ccc(O)c2ncc(NC3CCNC3)cc12 (centres unmarked) [NCGC00241039-01]	-4.7486 Log AC50 (M) and -4.7986 Log AC50 (M)	20	-4.8486 Log AC50 (M) and -4.6486 Log AC50 (M)	20
Cc1cccc2nc(-c3ccccn3)c(Nc3ccc(F)cc3)n12 [NCGC00106061-03]	-5.2986 Log AC50 (M)	5.03	-5.2986 Log AC50 (M) and -5.0986 Log AC50 (M)	5.64
O=C1C(c2ccc(C(F)(F)F)cc2)=C(Nc2ccc(Cl)cc2)c2ccccc21 [NCGC00107304-02]	-6.0486 Log AC50 (M) and -5.9486 Log AC50 (M) (2×)	–	-5.1986 Log AC50 (M) and -5.3486 Log AC50 (M) and -5.6486 Log AC50 (M)	–
O=C(O)c1ccc(N(CCN2CCC(F)(F)CC2)c2ccc(F)cc2)cn1 [NCGC00390011-01]	-4.7486 Log AC50 (M)	20	–	17.8
COC(=O)c1ccnc2cc(C(OCCC3CCCCC3)c3ccccc3Cl)[nH]c12 (centres unmarked) [NCGC00421833-01]	-4.7986 Log AC50 (M) and -4.7486 Log AC50 (M)	15.9	-4.7486 Log AC50 (M) and -4.7986 Log AC50 (M)	17.8
Cc1nn2c(c1-c1ccccc1-c1ccccc1)N(CCCc1ccccc1)CCC2 [NCGC00500005-01]	-5.0486 Log AC50 (M)	7.97	-5.0486 Log AC50 (M) and -4.8986 Log AC50 (M)	8.94
Cc1ccc(CN2CCN(c3cnc4c(O)ccc(C(=O)O)c4c3)CC2)cc1 [NCGC00249379-01]	-4.7986 Log AC50 (M)	17.8	-4.8486 Log AC50 (M) and -4.7486 Log AC50 (M)	15.9
CC(C)c1c(-c2cnn(C(C)(C)C)c2)[nH]c2c(C#N)cnn2c1=O [NCGC00488278-03]	-4.7486 Log AC50 (M)	–	-4.8986 Log AC50 (M)	–
